Experimental data: patent US11696937B2, “Glycopeptide compounds having activity of resisting drug-resistant bacteria, and preparation method and application thereof” (priority 2018, dated 2023)
Values after ≈ are worked out from the molar mass of the structure shown.

Experiments:
ATCC43300 (MRSA) = assay: In vitro antibacterial activity (MIC) against MRSA; type: cell-based, Methicillin-resistant Staphylococcus aureus; settings: MRSA strain ATCC43300; method of Pharmacopoeia of the People's Republic of China (2015 edition)
Procedure: (§1) An antibacterial activity of the compounds in Table 1 is determined in vitro, and a minimum inhibitory concentration (MIC) is read. The determination method refers to the method of the Pharmacopoeia of the People's Republic of China (2015 edition). The MRSA detection strain is purchased from ATCC, and the VRE detection strain is from the clinically isolated drug-resistant strain 07-W3-45 from Shanghai Huashan Hospital. Known antibiotic oritavancin (phosphate) is used for a reference drug.

[1] = test system: Clinical isolates 07-W3-45 (VRE); assay: In vitro antibacterial activity (MIC) against VRE; type: cell-based, Vancomycin-resistant Enterococcus; settings: clinically isolated drug-resistant strain 07-W3-45 from Shanghai Huashan Hospital
Procedure: as §1

wild AB zebrafish = assay: Zebrafish toxicity test; type: in vivo; settings: intravenous injection, 72 hours of treatment, samples in phosphate form
Procedure: A zebrafish toxicity test of the compounds in Table 1 is also tested. Randomly select wild AB zebrafish in a six-well plate, and inject each test sample at a dose of 50, 100, 150, 200, and 250 ng/tail intravenously. At the same time, a normal control group and a solvent control group (aqueous phosphoric acid) are set; During this experiment, the death of zebrafish is observed and recorded every day and the dead fish are removed. After 72 hours of treatment, the death of zebrafish is counted. Calculate the LD50 of each test product to zebrafish.
All samples are tested for zebrafish toxicity in phosphate form.

SMILES	MIC ATCC43300 (MRSA) (ATCC43300 (MRSA)) [µg/mL]	MIC Clinical isolates 07-W3-45 (VRE) [1] [µg/mL]	Zebrafish LD50 (wild AB zebrafish) [ng/tail]
CNC(CC(C)C)C(=O)NC1C(=O)NC(CC(N)=O)C(=O)NC2C(=O)NC3C(=O)NC(C(=O)NC(C(=O)O)c4cc(O)cc(O)c4-c4cc3ccc4O)C(OC3CC(C)(N)C(O)C(C)O3)c3ccc(c(Cl)c3)Oc3cc2cc(c3OC2OC(CO)C(O)C(O)C2OC2CC(C)(NCc3ccc(OCCc4cccc(Br)c4)cc3)C(O)C(C)O2)Oc2ccc(cc2Cl)C1O (stereo not drawn) [Compound 10]	0.125 (≈ 0.0664 µM)	1 (≈ 0.531 µM)	113
CNC(CC(C)C)C(=O)NC1C(=O)NC(CC(N)=O)C(=O)NC2C(=O)NC3C(=O)NC(C(=O)NC(C(=O)O)c4cc(O)cc(O)c4-c4cc3ccc4O)C(OC3CC(C)(N)C(O)C(C)O3)c3ccc(c(Cl)c3)Oc3cc2cc(c3OC2OC(CO)C(O)C(O)C2OC2CC(C)(NCc3ccc(OCc4ccccc4)cc3)C(O)C(C)O2)Oc2ccc(cc2Cl)C1O (stereo not drawn) [Compound 1]	0.5 (≈ 0.28 µM)	2 (≈ 1.12 µM)	139
CNC(CC(C)C)C(=O)NC1C(=O)NC(CC(N)=O)C(=O)NC2C(=O)NC3C(=O)NC(C(=O)NC(C(=O)O)c4cc(O)cc(O)c4-c4cc3ccc4O)C(OC3CC(C)(N)C(O)C(C)O3)c3ccc(c(Cl)c3)Oc3cc2cc(c3OC2OC(CO)C(O)C(O)C2OC2CC(C)(NCc3ccc(OCCc4ccc(C(F)(F)F)cc4)cc3)C(O)C(C)O2)Oc2ccc(cc2Cl)C1O (stereo not drawn) [Compound 11]	0.064 (≈ 0.0342 µM)	0.5 (≈ 0.267 µM)	99
CNC(CC(C)C)C(=O)NC1C(=O)NC(CC(N)=O)C(=O)NC2C(=O)NC3C(=O)NC(C(=O)NC(C(=O)O)c4cc(O)cc(O)c4-c4cc3ccc4O)C(OC3CC(C)(N)C(O)C(C)O3)c3ccc(c(Cl)c3)Oc3cc2cc(c3OC2OC(CO)C(O)C(O)C2OC2CC(C)(NCc3ccc(NCCc4ccc(OC)cc4)cc3)C(O)C(C)O2)Oc2ccc(cc2Cl)C1O (stereo not drawn) [Compound 23]	0.5 (≈ 0.273 µM)	1 (≈ 0.546 µM)	192
CNC(CC(C)C)C(=O)NC1C(=O)NC(CC(N)=O)C(=O)NC2C(=O)NC3C(=O)NC(C(=O)NC(C(=O)O)c4cc(O)cc(O)c4-c4cc3ccc4O)C(OC3CC(C)(N)C(O)C(C)O3)c3ccc(c(Cl)c3)Oc3cc2cc(c3OC2OC(CO)C(O)C(O)C2OC2CC(C)(NCc3ccc(OCCc4ccc(F)cc4)cc3)C(O)C(C)O2)Oc2ccc(cc2Cl)C1O (stereo not drawn) [Compound 7]	0.5 (≈ 0.275 µM)	1 (≈ 0.549 µM)	97
CNC(CC(C)C)C(=O)NC1C(=O)NC(CC(N)=O)C(=O)NC2C(=O)NC3C(=O)NC(C(=O)NC(C(=O)O)c4cc(O)cc(O)c4-c4cc3ccc4O)C(OC3CC(C)(N)C(O)C(C)O3)c3ccc(c(Cl)c3)Oc3cc2cc(c3OC2OC(CO)C(O)C(O)C2OC2CC(C)(NCc3ccc(SCc4ccccc4)cc3)C(O)C(C)O2)Oc2ccc(cc2Cl)C1O (stereo not drawn) [Compound 14]	0.032 (≈ 0.0177 µM)	8 (≈ 4.43 µM)	82
CNC(CC(C)C)C(=O)NC1C(=O)NC(CC(N)=O)C(=O)NC2C(=O)NC3C(=O)NC(C(=O)NC(C(=O)O)c4cc(O)cc(O)c4-c4cc3ccc4O)C(OC3CC(C)(N)C(O)C(C)O3)c3ccc(c(Cl)c3)Oc3cc2cc(c3OC2OC(CO)C(O)C(O)C2OC2CC(C)(NCc3ccc(NCc4ccc(C)cc4)cc3)C(O)C(C)O2)Oc2ccc(cc2Cl)C1O (stereo not drawn) [Compound 18]	0.5 (≈ 0.278 µM)	1 (≈ 0.555 µM)	128
CNC(CC(C)C)C(=O)NC1C(=O)NC(CC(N)=O)C(=O)NC2C(=O)NC3C(=O)NC(C(=O)NC(C(=O)O)c4cc(O)cc(O)c4-c4cc3ccc4O)C(OC3CC(C)(N)C(O)C(C)O3)c3ccc(c(Cl)c3)Oc3cc2cc(c3OC2OC(CO)C(O)C(O)C2OC2CC(C)(NCc3ccc(OCCc4ccccc4)cc3)C(O)C(C)O2)Oc2ccc(cc2Cl)C1O (stereo not drawn) [Compound 2]	0.5 (≈ 0.277 µM)	2 (≈ 1.11 µM)	163
CNC(CC(C)C)C(=O)NC1C(=O)NC(CC(N)=O)C(=O)NC2C(=O)NC3C(=O)NC(C(=O)NC(C(=O)O)c4cc(O)cc(O)c4-c4cc3ccc4O)C(OC3CC(C)(N)C(O)C(C)O3)c3ccc(c(Cl)c3)Oc3cc2cc(c3OC2OC(CO)C(O)C(O)C2OC2CC(C)(NCc3ccc(OCCc4ccc(OC)cc4)cc3)C(O)C(C)O2)Oc2ccc(cc2Cl)C1O (stereo not drawn) [Compound 12]	0.5 (≈ 0.273 µM)	16 (≈ 8.73 µM)	188
CNC(CC(C)C)C(=O)NC1C(=O)NC(CC(N)=O)C(=O)NC2C(=O)NC3C(=O)NC(C(=O)NC(C(=O)O)c4cc(O)cc(O)c4-c4cc3ccc4O)C(OC3CC(C)(N)C(O)C(C)O3)c3ccc(c(Cl)c3)Oc3cc2cc(c3OC2OC(CO)C(O)C(O)C2OC2CC(C)(NCc3ccc(NCCc4ccc(C(F)(F)F)cc4)cc3)C(O)C(C)O2)Oc2ccc(cc2Cl)C1O (stereo not drawn) [Compound 22]	0.032 (≈ 0.0171 µM)	0.25 (≈ 0.134 µM)	142
CNC(CC(C)C)C(=O)NC1C(=O)NC(CC(N)=O)C(=O)NC2C(=O)NC3C(=O)NC(C(=O)NC(C(=O)O)c4cc(O)cc(O)c4-c4cc3ccc4O)C(OC3CC(C)(N)C(O)C(C)O3)c3ccc(c(Cl)c3)Oc3cc2cc(c3OC2OC(CO)C(O)C(O)C2OC2CC(C)(NCc3ccc(OCCCc4ccccc4)cc3)C(O)C(C)O2)Oc2ccc(cc2Cl)C1O (stereo not drawn) [Compound 3]	0.25 (≈ 0.138 µM)	1 (≈ 0.55 µM)	123
CNC(CC(C)C)C(=O)NC1C(=O)NC(CC(N)=O)C(=O)NC2C(=O)NC3C(=O)NC(C(=O)NC(C(=O)O)c4cc(O)cc(O)c4-c4cc3ccc4O)C(OC3CC(C)(N)C(O)C(C)O3)c3ccc(c(Cl)c3)Oc3cc2cc(c3OC2OC(CO)C(O)C(O)C2OC2CC(C)(NCc3ccc(NCCCc4ccc(Cl)cc4)cc3)C(O)C(C)O2)Oc2ccc(cc2Cl)C1O (stereo not drawn) [Compound 25]	0.064 (≈ 0.0346 µM)	0.25 (≈ 0.135 µM)	97
CNC(CC(C)C)C(=O)NC1C(=O)NC(CC(N)=O)C(=O)NC2C(=O)NC3C(=O)NC(C(=O)NC(C(=O)O)c4cc(O)cc(O)c4-c4cc3ccc4O)C(OC3CC(C)(N)C(O)C(C)O3)c3ccc(c(Cl)c3)Oc3cc2cc(c3OC2OC(CO)C(O)C(O)C2OC2CC(C)(NCc3ccc(NCCCc4ccccc4)cc3)C(O)C(C)O2)Oc2ccc(cc2Cl)C1O (stereo not drawn) [Compound 24]	0.5 (≈ 0.275 µM)	1 (≈ 0.551 µM)	153
CNC(CC(C)C)C(=O)NC1C(=O)NC(CC(N)=O)C(=O)NC2C(=O)NC3C(=O)NC(C(=O)NC(C(=O)O)c4cc(O)cc(O)c4-c4cc3ccc4O)C(OC3CC(C)(N)C(O)C(C)O3)c3ccc(c(Cl)c3)Oc3cc2cc(c3OC2OC(CO)C(O)C(O)C2OC2CC(C)(NCc3ccc(SCc4ccc(Cl)cc4)cc3)C(O)C(C)O2)Oc2ccc(cc2Cl)C1O (stereo not drawn) [Compound 15]	0.032 (≈ 0.0174 µM)	1 (≈ 0.544 µM)	76
CNC(CC(C)C)C(=O)NC1C(=O)NC(CC(N)=O)C(=O)NC2C(=O)NC3C(=O)NC(C(=O)NC(C(=O)O)c4cc(O)cc(O)c4-c4cc3ccc4O)C(OC3CC(C)(N)C(O)C(C)O3)c3ccc(c(Cl)c3)Oc3cc2cc(c3OC2OC(CO)C(O)C(O)C2OC2CC(C)(NCc3ccc(SCCc4ccc(Cl)cc4)cc3)C(O)C(C)O2)Oc2ccc(cc2Cl)C1O (stereo not drawn) [Compound 16]	0.032 (≈ 0.0173 µM)	0.5 (≈ 0.27 µM)	72
